Here are results for 26 compounds from patent publication US5591615A, “Mutant of Geotrichum candidum which produces novel enzyme system to selectively hydrolyze triglycerides” (priority 1995, dated 1997).

For assay [1], the system named is Geotrichum candidum mutant 9-2. Put plainly: UNLipase production by mutant in culture medium. Type of assay: cell-based. On the procedure: It was determined early in our work that having fat or oil in the medium induced other lipases produced by Geotrichum strains. Thus fat or oil was eliminated from the medium. Then improvements for Bacto-Peptone were sought. A series of peptones or other organic nitrogen sources were tested including soy peptone, trypticase® (BBL) peptone, casamino acids, NZ amine® (Sheffield Products) and casein.
Next, the salt constituents were examined in the standard medium. […] The inclusion of these two salts in the medium gave a doubling of measured hydrolyric activity when assayed using the standard assay. […] Fifty mls of this medium are placed in 500 ml baffled flasks (Bellco) then shaken at 250 rpms at 25°-30° C.
The next goal was to find a mutant with enhanced productivity. Thus the mutagenesis of mutant 9-2 was undertaken as described above but the selection protocol was altered. In this case, after the 8° C. recovery period the mutant suspensions were placed in 50 ml sterile test tubes and frozen at -55° C. The period of freezing was then interrupted by thawing periods (about 4 hours) and followed by freezing at -55° C. Mutants were screened for lipase activity and selectivity. One mutant, 9-2-3-9, survived a cycle of 3 weeks of freezing which had been interrupted by 3 thaw cycles. The mutant 9-2-3-9 was distinctly different from its parent (9-2) in its colony morphology when grown on nutrient agar. The colony type was much more aerial than 9-2.
The mutant 9-2 was grown in the medium described above. Fifty mls were added to 500 ml baffled flasks (Bellco) and placed on a shaker maintained at 30° C. and shaken at 250 rpms. Production reaches a peak at about 30 hours, then declines slightly and remains low. The enzyme was harvested at 30 hours for a series of hydrolyric tests. The collection of the enzyme involves centrifugation of the broth at 5000 rpms in the Beckman GSA rotor for 10 minutes. The cell free broth was then decanted from the cell pellet. In some cases, high activity suspension were produced by a 70% ammonium sulfate precipitation of the broth.

Assay [2] has as its system UNLipase. Put plainly: Esterification of fatty acid mixture from pressure-split beef tallow (PFA). In kind it is biochemical, Geotrichum candidum. The settings on record: HPLC or GC; pentadecanoic acid internal standard. On the procedure:
The esterification of fatty acid mixtures was evaluated using typical fatty acid mixtures derived from pressure-split beef tallow, henceforth referred to as PFA. Samples of PFA were spiked with pentadecanoic acid as an internal standard. The resulting products were analyses by either HPLC (reverse phase C-18 column) or GC (FFAP capillary column).

The subject of assay [3] is UNLipase. Put plainly: Fatty acid selectivity of lipase esterification. Type of assay: biochemical, Geotrichum candidum. The protocol: These preparations contained 50-200 mg of fatty acid, 0.5 ml concentrated broth, 0.5 ml water (buffer) and 100-300 ul of alcohol. Reactions were run at either 27, 30 or 37 degrees Celsius for 16 to 24 hours. The reaction was stopped by adding 2.0 ml ether.
Fatty acid and ester were extracted into ether and evaluated by thin layer chromatography. The esterification of oleic acid with various alcohols is present in Table 1.
The fatty acid selectivity of the lipase in esterification reactions was also evaluated in the manner described above, with results analyzed by thin layer chromatography, GC, HPLC and IR.

In assay [4] the test system is UNLipase. The assay is described as follows: Effect of metal ions on UNLipase. In kind it is biochemical, Geotrichum candidum. The settings on record: 25 mM concentration.
Assay [5] deals with UNLipase. Put plainly: Hydrolysis of simple (methyl) esters with UNLipase. The settings on record: about 50 mM in isooctane, 37 degrees C, 4 hours. In kind it is biochemical, Geotrichum candidum. The text has this:
Simple esters were subjected to UNLipase to determine the scope and extent of UNLipase selectivity. The esters evaluated were methyl esters of propionic, caprylic, nonanoic, caproic, palmitic and oleic acids. […] Approximately 2% of the methyl palmitate reacted, whereas 67% of the methyl oleate was hydrolyzed.

Another assay deals with G. candidum lipase. The following applies: cited from earlier work.
Assay [6] deals with UNLipase. Put plainly: Hydrolysis of pure triglycerides with UNLipase. Type of assay: biochemical, Geotrichum candidum. The following applies: 1 hour at 37 degrees C; for ratio of hydrolysis for triolein:tripalmitolein:trilinolein: pure triglyceride in isooctane, relative to triolein 100. On the procedure: The Enzyme was harvested using centrifugation at 5000 rpms, for example, in a Beckman GSA rotor for 10 minutes. This cell-free preparation was used to determine hydrolysis, esterification and transesterification properties.
Substrates were prepared in isooctane (2,2,4-trimethylpentane) at about 0.8 grams per 20 ml solvent. Assay procedures for determining lipase activity were those described by Kwon, D. Y. and Rhee, J. S., J. Amer. Oil Chem Soc. 63:89-92(1986). One modification was to perform some assays for one hour under nonagitated conditions to avoid difficulties in reproducing agitation rates.
Hydrolysis was greatest for triolein, with the ratio of hydrolysis for triolein: tripalmitolein:trilinolein of 100:65:82. […] The ratio of hydrolysis of triolein to tripalmitin was approximately 33:1.

[7] abbreviates: added to culture medium of mutant 9-2.

Each structure is given as a SMILES string.

Consider `OC[C@H]1O[C@H](O[C@H]2[C@H](O)[C@@H](O)C(O)O[C@@H]2CO)[C@H](O)[C@@H](O)[C@@H]1O` (mixture of isomers) [maltose], for which the “effect on UNLipase production” value in assay [1] (setting [7]) is given as “no effect”.

For `O=P([O-])(O)O.[K+]` [KH2 PO4], the “effect on UNLipase production” value in assay [1] (setting [7]) is listed as “benefit”.

Turning to `CCCCC/C=C\C/C=C\CCCCCCCC(=O)O` [Linoleic], in the assay with UNLipase [2], the “ester formation in PFA mixture” value is listed as “detected”.

As for `O=S(=O)([O-])[O-].[Mg+2]` [MgSO4], the “effect on UNLipase production” value in assay [1] (MgSO4 concentration increased to 0.5%) is reported as “no further enhancement”; in assay [1] (setting [7]) it was “benefit”.

For `CCCCCCCC/C=C\CCCCCCCC(=O)O` [Oleic, oleic acid], the “ester formation in PFA mixture” value with UNLipase [2] is “detected”.

For `CCCCCC/C=C\CCCCCCCC(=O)O` [Palmitoleic], the “ester formation in PFA mixture” value in the assay with UNLipase [2] is reported as “detected”.

For `CCCCCCCCCCCCCCCCCC(=O)O` [Stearic], the “ester formation in PFA mixture” value in the assay with UNLipase [2] was “not esterified”.

`C=CCCCCCCCCC(=O)O` [Undecenoic acid, 10-undecenoic acid]: the “effect on esterification of oleic acid” value with UNLipase [3] is listed as “inhibitor”.

Take `[Ca+2]` [calcium ions]: the “effect on UNLipase” value in the assay on UNLipase [4] is recorded as “inhibited”. The “effect on UNLipase production” value in assay [1] (setting [7]) is “did not enhance”.

For `O=C(CO)[C@@H](O)[C@H](O)[C@H](O)CO` [fructose], the “effect on UNLipase production” value in assay [1] (setting [7]) is recorded as “inhibited”.

Turning to `O=C[C@H](O)[C@@H](O)[C@H](O)[C@H](O)CO` [glucose], in assay [1] (setting [7]), the “effect on UNLipase production” value is reported as “inhibited”.

With `[Mg+2]` [magnesium ions], in the assay on UNLipase [4], the “effect on UNLipase” value is recorded as “activated”.

In the case of `OC[C@@H](O)[C@@H](O)[C@H](O)[C@H](O)CO` [mannitol], the “effect on UNLipase production” value in assay [1] (setting [7]) was “no effect”.

For the compound `CCCCCCCC(=O)OC` [methyl ester of caprylic acid], in the assay on UNLipase [5], the “hydrolysis by UNLipase” value is on record as “not hydrolyzed”.

As for `CCCCCCCCC(=O)OC` [methyl ester of nonanoic acid], the “hydrolysis by UNLipase” value in the assay with UNLipase [5] is reported as “not hydrolyzed”.

Take `CCC(=O)OC` [methyl ester of propionic acid]: the “hydrolysis by UNLipase” value with UNLipase [5] is recorded as “not hydrolyzed”.

Consider `CCCCCCCC/C=C\CCCCCCCC(=O)OC` [methyl oleate], for which, in the assay on UNLipase [5], the methyl ester hydrolyzed was determined as 67%. The “hydrolytic rate relative to palmitic methyl ester” value with G. candidum lipase is listed as 10 times.

In the case of `CCCCCCCCCCCCCCCC(=O)OC` [methyl palmitate], the methyl ester hydrolyzed entry in the assay with UNLipase [5] is reported as “Approximately 2%”.

As to `CCCCCCCCCCCCCC(=O)O` [myristic], the “ester formation in PFA mixture” value with UNLipase [2] is “not esterified”.

Take `CCCCCCCCCCCCCCCC(=O)O` [palmitic]: in the assay with UNLipase [2], the “ester formation in PFA mixture” value was “not esterified”.

On to `CCCCCCCCCCCCCCC(=O)O` [pentadecanoic acid], for which, in the assay with UNLipase [2], the “ester formation in PFA mixture” value is listed as “not esterified”.

With `OC[C@H]1O[C@@](CO)(O[C@H]2O[C@H](CO)[C@@H](O)[C@H](O)[C@H]2O)[C@@H](O)[C@@H]1O` [sucrose], the “effect on UNLipase production” value in assay [1] (setting [7]) is listed as “inhibited”.

Consider `CCCCC/C=C\C/C=C\CCCCCCCC(=O)OCC(COC(=O)CCCCCCC/C=C\C/C=C\CCCCC)OC(=O)CCCCCCC/C=C\C/C=C\CCCCC` [trilinolein], for which the “ratio of hydrolysis for triolein:tripalmitolein:trilinolein” value (shortened to “ratio of hydrolysis”) in the assay on UNLipase [6] was 82.

On to `CCCCCCCC/C=C\CCCCCCCC(=O)OCC(COC(=O)CCCCCCC/C=C\CCCCCCCC)OC(=O)CCCCCCC/C=C\CCCCCCCC` [triolein], for which the “ratio of hydrolysis” value with UNLipase [6] was 100.

In the case of `CCCCCCCCCCCCCCCC(=O)OCC(COC(=O)CCCCCCCCCCCCCCC)OC(=O)CCCCCCCCCCCCCCC` [tripalmitin], the “reactivity with UNLipase” value in the assay on UNLipase [6] (saturated fatty acid triglycerides) is on record as “showed any reactivity”.

Regarding `CCCCCC/C=C\CCCCCCCC(=O)OCC(COC(=O)CCCCCCC/C=C\CCCCCC)OC(=O)CCCCCCC/C=C\CCCCCC` [tripalmitolein], in the assay with UNLipase [6], the “ratio of hydrolysis” value turned out to be 65.
